The IC50 is the midpoint of a concentration-inhibition curve.

SMILES strings stand for the structures.

The results in this text go back to PMC6264310, “Synthesis and Pharmacological Activity of Diterpenylnaphthoquinone Derivatives” (Molecules, 2011).

For assay [1], the system named is AGS cells. The assay is described as follows: Basal cytotoxicity, neutral red uptake assay, AGS. The format is cell-based. Conditions: Homo sapiens, confluent cultures, 24 h, read-out: IC50 ± SEM, AGS. As to the method: (§1) 3.6. Cytotoxicity Assay
(§2) The human cell lines MRC-5 normal lung fibroblasts (ATCC CCL-171), AGS gastric adenocarcinoma cells (ATCC CRL-1739), and Hep G2 hepatocellular carcinoma cells (ATCC HB-8065) were obtained from the American Type Culture Collection (ATCC, Manassas, VA, USA). The cells were grown as monolayers in the following media: MRC-5 and Hep G2 in minimum essential Eagle’s medium (MEM), with Earle’s salts, 2.0 mM L-glutamine (Sigma Chemical Co.) and 2.2 g/L sodium bicarbonate (Sigma Chemical Co.), supplemented with 10% heat-inactivated fetal bovine serum (FBS), 100 IU/mL penicillin, and 100 µg/mL streptomycin in a humidified incubator with 5% CO2 in air at 37 °C. Cell passage was maintained between 10 and 16 for MRC-5 and between 79 and 82 for Hep G2 cells. The medium was changed every 2 days. Culture media, antibiotics, and FBS were obtained from Invitrogen Corp. Human gastric adenocarcinoma cells AGS (ATCC CRL-1739) were grown as monolayers in Ham F-12 medium containing 1.0 mM L-glutamine and 1.5 g/L sodium bicarbonate, supplemented with 10% heat-inactivated FBS, 100 IU/mL penicillin, and 100 µg/mL streptomycin in a humidified incubator with 5% CO2 in air at 37 °C. Cell passage was maintained between 42 and 48. The medium was changed every 2 days.
(§3) Confluent cultures of the different cell lines were treated with medium containing the compounds at concentrations ranging from 1 up to 1,000 µM. The antisecretory drug lansoprazole was used as reference compound. The substances were first dissolved in DMSO and then in the corresponding culture medium supplemented with 2% FBS. The final concentration of DMSO in the test medium and controls was 1%. The cells were exposed for 24 h to test medium with or without the compound (control). Each concentration was tested in quadruplicate together with the control and repeated three times in separate experiments. At the end of the incubation the neutral red uptake assay was performed.

Assay [2] relates to Hep G2 cells. As to the kind of experiment: Basal cytotoxicity, neutral red uptake assay, Hep G2. The format is cell-based. As to conditions: Homo sapiens, HepG2, Hep G2, confluent cultures, 24 h, read-out: IC50 ± SEM, Hep G2. As to the method: as §1, §2, §3
Assay [3] relates to HCl-EtOH-induced gastric lesions. As to the kind of experiment: HCl-EtOH-induced gastric lesion model in mice. The format is in vivo. As to the method: 3.5. HCl-EtOH-Induced Ulcer Model in Mice
The gastroprotective activity of the compounds was assessed in the EtOH-HCl-induced gastric lesion model. Male Swiss albino mice weighing 30 ± 3 g were used. The animals were fed on certified Champion diet with free access to water under standard conditions of 12 h dark-light period, 50% relative humidity, and 22 °C room temperature. The mice were randomly distributed into groups of 7–14 animals each and fasted for 24 h with free access to water before the oral administration of test samples by gavage. The purity of the tested compounds was higher than 95% by NMR analysis. To keep the animal numbers to a minimum, dose-response studies were performed with lapachol at 5, 10 and 50 mg/kg to set the conditions for single-dose comparison of gastroprotective effect. The tested compounds, lansoprazole (20 mg/kg) or the vehicle (12% Tween 80, 10 mL/kg) were administered orally by gavage. After 50 min, all groups were orally treated with 0.2 mL of a solution containing 60% EtOH-0.3 M HCl for gastric lesion induction. Animals were sacrificed by cervical dislocation 1 h after the administration of EtOH-HCl, and the stomachs excised and inflated by injection of 5% formalin (1 mL). The ulcerated stomachs were fixed in 5% formalin for 30 min and opened along the greater curvature. The length (mm) of each lesion was measured, and the lesion index expressed as the sum of the length of all lesions. Based on previous studies on the parent diterpenes, comparison of the new compounds 1–12 was carried out at a single oral dose of 5 mg/kg. The protocols were approved by the Universidad de Talca Institutional Animal Care and Use Committee, which follows the recommendations of the Canadian Council on Animal Care. Tween 80 and lansoprazole (>98% purity by HPLC) were purchased from Sigma-Aldrich.
Results were expressed as the mean ± SEM. In all experiments, statistical differences between several treatments and their respective control were determined by one-way ANOVA with Student-Newman-Keuls post-hoc test. The level of significance was set at P < 0.05.

The subject of assay [4] is MRC-5 fibroblasts. As to the kind of experiment: Basal cytotoxicity, neutral red uptake assay, MRC-5. It counts as cell-based. Conditions: Homo sapiens, MRC5, MRC-5, confluent cultures, 24 h, read-out: IC50 ± SEM, Fibroblasts. How it is done:
as §1, §2, §3

[5] abbreviates: Mus musculus, 1 h, mice, single oral dose of 5 mg/kg, read-out: Protection (%).
[6] abbreviates: mice, single oral dose of 5 mg/kg.
[7] abbreviates: Mus musculus, 1 h, mice, single oral dose of 5 mg/kg, read-out: Protected stomachs (number of stomachs completely protected from any visible bleeding) (converted).

For the compound `C=C1CCC2[C@](C)(CCC[C@]2(C)C(=O)O)[C@H]1CC[C@@H](C)CC(=O)OC1=C(CC=C(C)C)C(=O)c2ccccc2C1=O` (stereo partly drawn) [Compound 1, Lapachoyl junicedrate], the IC50 in assay [1] turned out to be 170 ± 9 µM; in assay [2], 57.4 ± 4.4 µM; in assay [4], 210 ± 13 µM. Further, the inhibition in vivo at 5 mg/kg in assay [3] (setting [5]) stood at 44%. Further, the “Lesion index (mm) Mean ± SEM” value in assay [3] (setting [6]) came out at 15.3 ± 5.0 mm.

On to `C=C1CCC2[C@](C)(CCC[C@]2(C)C(=O)OC)[C@H]1CC[C@@H](C)CC(=O)OC1=C(CC=C(C)C)C(=O)c2ccccc2C1=O` (stereo partly drawn) [Compound 2, Lapachoyl junicedrate methyl ester], for which the IC50 was 361 ± 19 µM in assay [1], 208 ± 11 µM in assay [2] and 741 ± 40 µM in assay [4]. The responders at 5 mg/kg in assay [3] (setting [7]) was 44.4%. For the same compound, the inhibition in vivo at 5 mg/kg in assay [3] (setting [5]) was 65%. In addition, the “Lesion index (mm) Mean ± SEM” value in assay [3] (setting [6]) is listed as 8.7 ± 3.9 mm.

Turning to `C=C1CCC2[C@](C)(CCC[C@]2(C)C(=O)O)[C@H]1CC[C@@H](C)CC(=O)OC1=C(CCC(C)C)C(=O)c2ccccc2C1=O` (stereo partly drawn) [Compound 3, Dihydroprenyl lapachoyl junicedrate], the IC50 in assay [1] was 89 ± 5 µM; in assay [2] it was over 1000 µM; in assay [4], 156 ± 9 µM. In assay [3] (setting [7]), the responders at 5 mg/kg is 0%. Besides, the inhibition in vivo at 5 mg/kg in assay [3] (setting [5]) stood at 59%. In addition, in assay [3] (setting [6]), the “Lesion index (mm) Mean ± SEM” value is on record as 17.9 ± 4.6 mm.

Take `C=C1CCC2[C@](C)(CCC[C@]2(C)C(=O)OC)[C@H]1CC[C@@H](C)CC(=O)OC1=C(CCC(C)C)C(=O)c2ccccc2C1=O` (stereo partly drawn) [Compound 4, Dihydroprenyl lapachoyl junicedrate methyl ester]: the results for the IC50 in assay [1], in assay [2] and in assay [4] were 382 ± 26 µM, over 1000 µM and over 1000 µM, respectively. Besides, the responders at 5 mg/kg in assay [3] (setting [7]) is 0%. Besides, the inhibition in vivo at 5 mg/kg in assay [3] (setting [5]) came out at 55%. Also, the “Lesion index (mm) Mean ± SEM” value in assay [3] (setting [6]) is 19.3 ± 5.0 mm.

In the case of `C=C1CCC2[C@](C)(CCC[C@]2(C)C(=O)O)[C@H]1CC[C@@H](C)CC(=O)OC1=C(CCC(C)C)C(=O)C2=C(CCCC2)C1=O` (stereo partly drawn) [Compound 5, Dihydroprenyl-5,6,7,8-tetrahydrolapachoyl junicedrate], the IC50 in assay [1] came out at 40 ± 6 µM; in assay [2], 27 ± 1 µM; in assay [4] it was 69 ± 3 µM. Also, in assay [3] (setting [7]), the responders at 5 mg/kg is 0%. Further, the inhibition in vivo at 5 mg/kg in assay [3] (setting [5]) came out at 18%. Further, the “Lesion index (mm) Mean ± SEM” value in assay [3] (setting [6]) was determined as 20.4 ± 3.6 mm.

Regarding `CC(C)=CCC1=C(OC(=O)C[C@H](C)CCC2=C(C)CCC3[C@@](C)(C(=O)O)CCC[C@]23C)C(=O)c2ccccc2C1=O` (stereo partly drawn) [Compound 7, Lapachoyl Δ8(9) junicedrate], the IC50 is 179 ± 9 µM in assay [1], 96 ± 9 µM in assay [2] and 190 ± 8 µM in assay [4]. The responders at 5 mg/kg in assay [3] (setting [7]) was 12.5%. Moreover, in assay [3] (setting [5]), the inhibition in vivo at 5 mg/kg was 54%. For the same compound, in assay [3] (setting [6]), the “Lesion index (mm) Mean ± SEM” value worked out at 11.5 ± 4.4 mm.

Regarding `COC(=O)[C@@]1(C)CCC[C@]2(C)C(CC[C@@H](C)CC(=O)OC3=C(CC=C(C)C)C(=O)c4ccccc4C3=O)=C(C)CCC12` (stereo partly drawn) [Compound 8, Lapachoyl Δ8(9) junicedrate methyl ester], the IC50 in assay [1] was 721 ± 35 µM; in assay [2] it was 379 ± 21 µM; in assay [4] it was over 1000 µM. In addition, in assay [3] (setting [7]), the responders at 5 mg/kg is 55.6%. The inhibition in vivo at 5 mg/kg in assay [3] (setting [5]) turned out to be 84%. Also, the “Lesion index (mm) Mean ± SEM” value in assay [3] (setting [6]) was found to be 3.9 ± 1.9 mm.

For `CC1=C(CC[C@@H](C)CC(=O)OC2=C(CCC(C)C)C(=O)c3ccccc3C2=O)[C@@]2(C)CCC[C@](C)(C(=O)O)C2CC1` (stereo partly drawn) [Compound 9, Dihydroprenyl lapachoyl Δ8(9) junicedrate], the IC50 in assay [1] is 294 ± 15 µM; in assay [2] it was over 1000 µM; in assay [4], 341 ± 17 µM. The responders at 5 mg/kg in assay [3] (setting [7]) is 0%. Further, the inhibition in vivo at 5 mg/kg in assay [3] (setting [5]) was found to be 64%. Also, the “Lesion index (mm) Mean ± SEM” value in assay [3] (setting [6]) was 15.7 ± 4.5 mm.

In the case of `COC(=O)[C@@]1(C)CCC[C@]2(C)C(CC[C@@H](C)CC(=O)OC3=C(CCC(C)C)C(=O)c4ccccc4C3=O)=C(C)CCC12` (stereo partly drawn) [Compound 10, Dihydroprenyl lapachoyl Δ8(9) junicedrate methyl ester], the values for the IC50 in assay [1], in assay [2] and in assay [4] were 162 ± 10 µM, over 1000 µM and over 1000 µM, respectively. Besides, the responders at 5 mg/kg in assay [3] (setting [7]) is 33.3%. The inhibition in vivo at 5 mg/kg in assay [3] (setting [5]) was determined as 76%. Moreover, the “Lesion index (mm) Mean ± SEM” value in assay [3] (setting [6]) is 10.2 ± 3.5 mm.

As for `CC(C)=CCC1=C(OC(=O)C[C@H](C)CCC2[C@@H](C)CCC3[C@]2(C)CCC[C@]3(C)C(=O)O)C(=O)c2ccccc2C1=O` (stereo partly drawn) [Compound 11, Lapachoyl 17β-dihydrojunicedrate], the figures for the IC50 in assay [1], in assay [2] and in assay [4] were 114 ± 7 µM, 54.5 ± 5 µM and 336 ± 15 µM, respectively. Moreover, the responders at 5 mg/kg in assay [3] (setting [7]) is 0%. For the same compound, the inhibition in vivo at 5 mg/kg in assay [3] (setting [5]) was found to be 6%. Moreover, the “Lesion index (mm) Mean ± SEM” value in assay [3] (setting [6]) came to 23.5 ± 3.6 mm.

As to `COC(=O)[C@@]1(C)CCC[C@]2(C)C(CC[C@@H](C)CC(=O)OC3=C(CC=C(C)C)C(=O)c4ccccc4C3=O)[C@@H](C)CCC21` (stereo partly drawn) [Compound 12, Lapachoyl 17β-dihydrojunicedrate methyl ester], the IC50 in assay [1] was 323 ± 16 µM; in assay [2], 290 ± 9 µM; in assay [4] it was 926 ± 35 µM. Also, the responders at 5 mg/kg in assay [3] (setting [7]) is 0%. In addition, in assay [3] (setting [6]), the “Lesion index (mm) Mean ± SEM” value was found to be 27.4 ± 6.8 mm.

Regarding `COc1cc([C@@H]2c3cc4c(cc3[C@@H](O[C@@H]3O[C@@H]5CO[C@@H](C)O[C@H]5[C@H](O)[C@H]3O)[C@H]3COC(=O)[C@H]23)OCO4)cc(OC)c1O` [Etoposide, reference compound], in assay [1], the IC50 came to 0.58 ± 0.02 µM.

For `C=C1CCC2[C@](C)(CCC[C@]2(C)C(=O)O)[C@H]1CC[C@@H](C)CC(=O)O` (stereo partly drawn) [Junicedric acid (I), junicedric acid, reference compound], the IC50 in assay [1] was 304 ± 18 µM; in assay [2], over 1000 µM; in assay [4], 181 ± 9 µM.

Regarding `Cc1c(OCC(F)(F)F)ccnc1C[S+]([O-])c1nc2ccccc2[nH]1` (stereo not drawn) [Lansoprazole, lansoprazole, reference compound], the IC50 in assay [1] is 162 ± 6 µM; in assay [2], 221 ± 9 µM; in assay [4] it was 306 ± 11 µM. Besides, the responders at 20 mg/kg in assay [3] (Mus musculus, 1 h, mice, oral, 20 mg/kg, read-out: Protected stomachs (number of stomachs completely protected from any visible bleeding) (converted)) was 66.7%. Besides, in assay [3] (Mus musculus, 1 h, mice, oral, 20 mg/kg, read-out: Protection (%)), the inhibition in vivo at 20 mg/kg worked out at 73%. The “Lesion index (mm) Mean ± SEM” value in assay [3] (mice, oral, 20 mg/kg) is listed as 9.4 ± 1.2 mm.

Take `CC(C)=CCC1=C(O)C(=O)c2ccccc2C1=O` [Lapachol (IV), 2-hydroxy-3-(3-methyl-2-butenyl)-[1,4]-naphthoquinone, reference compound]: the IC50 is 382 ± 15 µM in assay [1], 55 ± 3 µM in assay [2] and over 1000 µM in assay [4]. In addition, the “Gastroprotective effect compared with the vehicle control (Tween 80)” value in assay [3] (mice, 5, 10 and 50 mg/kg, data not shown) is on record as “did not present a statistically significant effect”.
